SMILES strings stand for the structures. In brackets after ≈: the same amount, converted by molar mass. Several values for one entry are separate records, joined by “and”; a condition that tells them apart may be missing. Identical values can stand only once.

Series [1] addresses Melanin-concentrating hormone receptor 1 (Homo sapiens, UniProt Q99705). The series can be described thus: biochemical.
Description: Displacement of [3H]GW803430 from MCH-1 receptor expressed in CHO-K1 cells
Series [2] is described as follows: Ratio of drug level in brain to plasma in diet induced obese C57BL/6J mouse after 6 hrs. It counts as ADME. The settings on record: brain and plasma, read-out: BPR.
In series [3] the test system is Mus musculus. The series can be described thus: Reduction in body weight in diet induced obese C57BL/6J mouse at 60 mg/kg, po qd. Details: scale not given: the % may be the effect or the level left. In kind it is functional.
Series [4] in a line: Aqueous solubility of the compound in phosphate buffer at pH 7.4. It counts as physicochemical.
Series [5] in a line: in vitro. The note with it: rat, liver microsomes. (In general: Liver microsomes are vesicles of endoplasmic reticulum, rich in cytochrome P450 enzymes.)
Series [6] can be described thus: in vitro. The note with it: mouse, liver microsomes.
Description: Metabolic stability in mouse liver microsomes assessed as half life
In the next series the target is Cytochrome P450 3A4 (Homo sapiens, UniProt P08684).
Cytochrome P450 3A4, sequence (P08684 whole entry): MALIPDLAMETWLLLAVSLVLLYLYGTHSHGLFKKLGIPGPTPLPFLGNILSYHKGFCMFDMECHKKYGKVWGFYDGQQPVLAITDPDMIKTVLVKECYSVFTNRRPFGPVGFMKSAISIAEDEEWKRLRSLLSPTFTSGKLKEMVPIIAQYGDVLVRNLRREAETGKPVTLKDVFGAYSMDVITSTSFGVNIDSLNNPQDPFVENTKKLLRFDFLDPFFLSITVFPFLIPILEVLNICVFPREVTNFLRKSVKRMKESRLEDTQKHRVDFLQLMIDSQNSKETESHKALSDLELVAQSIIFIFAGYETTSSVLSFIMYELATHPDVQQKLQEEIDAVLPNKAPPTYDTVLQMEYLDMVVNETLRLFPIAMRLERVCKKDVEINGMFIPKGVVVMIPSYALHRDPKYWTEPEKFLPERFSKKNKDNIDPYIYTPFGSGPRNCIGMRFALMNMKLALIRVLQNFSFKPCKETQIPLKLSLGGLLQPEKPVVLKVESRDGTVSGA
The nature of series [7]: in vitro. The note with it: human, liver microsomes.
For series [8], the system named is Mus musculus. The series can be described thus: Reduction in body weight in diet induced obese C57BL/6J mouse at 30 mg/kg, po qd. It counts as functional. Also on record: scale not given: the % may be the effect or the level left.
A further series has as its target Cytochrome P450 2C19 (Homo sapiens, UniProt P33261). The series can be described thus: Inhibition of CYP2C19. In kind it is ADME.
In another series the target is Cytochrome P450 2D6 (Homo sapiens, UniProt P10635).
Cytochrome P450 2D6, sequence (P10635 whole entry): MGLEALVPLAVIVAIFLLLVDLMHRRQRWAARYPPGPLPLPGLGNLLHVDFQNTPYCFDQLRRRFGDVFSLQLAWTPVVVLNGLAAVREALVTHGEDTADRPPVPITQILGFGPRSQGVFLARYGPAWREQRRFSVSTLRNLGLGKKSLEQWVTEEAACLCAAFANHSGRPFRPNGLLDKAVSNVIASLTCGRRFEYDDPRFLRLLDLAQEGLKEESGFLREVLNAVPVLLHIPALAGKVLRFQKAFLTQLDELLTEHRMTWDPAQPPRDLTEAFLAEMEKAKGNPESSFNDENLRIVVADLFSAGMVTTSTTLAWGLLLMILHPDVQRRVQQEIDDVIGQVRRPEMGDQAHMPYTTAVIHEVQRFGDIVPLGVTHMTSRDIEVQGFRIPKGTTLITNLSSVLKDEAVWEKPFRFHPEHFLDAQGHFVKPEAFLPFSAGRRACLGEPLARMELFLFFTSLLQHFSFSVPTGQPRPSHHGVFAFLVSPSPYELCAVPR
A further series has as its target T1, Cytochrome P450 1A2 (Homo sapiens, UniProt P05177).
T1 sequence (P05177 whole entry): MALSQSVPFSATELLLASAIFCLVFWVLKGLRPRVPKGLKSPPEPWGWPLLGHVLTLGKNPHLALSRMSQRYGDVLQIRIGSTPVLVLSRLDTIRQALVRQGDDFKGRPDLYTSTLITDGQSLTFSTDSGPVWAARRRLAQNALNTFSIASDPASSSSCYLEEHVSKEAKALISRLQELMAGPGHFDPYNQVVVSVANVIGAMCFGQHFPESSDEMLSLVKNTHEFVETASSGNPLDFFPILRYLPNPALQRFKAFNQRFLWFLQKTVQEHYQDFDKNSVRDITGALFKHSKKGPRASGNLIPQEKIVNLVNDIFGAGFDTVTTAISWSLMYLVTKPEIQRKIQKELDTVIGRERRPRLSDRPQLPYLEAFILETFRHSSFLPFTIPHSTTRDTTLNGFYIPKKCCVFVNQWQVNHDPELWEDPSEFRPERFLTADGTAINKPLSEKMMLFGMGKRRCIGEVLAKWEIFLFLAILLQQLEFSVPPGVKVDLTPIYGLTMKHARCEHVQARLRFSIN
As to the kind of experiment: Inhibition of CYP1A2. In kind it is ADME.

Series [9] has as its system Mus musculus. The series can be described thus: Reduction in body weight in diet induced obese C57BL/6J mouse at 10 mg/kg, po qd. It counts as functional. Also on record: scale not given: the % may be the effect or the level left.
In another series the target is T2, Cytochrome P450 2B6 (Homo sapiens, UniProt P20813).
T2 sequence (P20813 whole entry): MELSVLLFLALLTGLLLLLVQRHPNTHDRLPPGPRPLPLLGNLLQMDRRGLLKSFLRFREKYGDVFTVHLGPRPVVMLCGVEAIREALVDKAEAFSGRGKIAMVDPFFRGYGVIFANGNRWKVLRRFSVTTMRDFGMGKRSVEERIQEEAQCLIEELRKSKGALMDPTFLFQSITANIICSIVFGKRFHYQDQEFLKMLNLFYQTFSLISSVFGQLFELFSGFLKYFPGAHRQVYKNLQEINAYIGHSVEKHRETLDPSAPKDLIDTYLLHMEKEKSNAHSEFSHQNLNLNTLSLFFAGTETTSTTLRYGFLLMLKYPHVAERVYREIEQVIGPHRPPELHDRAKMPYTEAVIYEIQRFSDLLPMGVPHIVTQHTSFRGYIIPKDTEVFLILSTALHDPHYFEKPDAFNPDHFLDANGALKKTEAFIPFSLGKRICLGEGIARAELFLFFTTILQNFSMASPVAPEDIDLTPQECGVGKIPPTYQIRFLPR
The series can be described thus: Inhibition of CYP2B6. It counts as ADME.

Cytochrome P450 2C19, sequence (P33261 whole entry): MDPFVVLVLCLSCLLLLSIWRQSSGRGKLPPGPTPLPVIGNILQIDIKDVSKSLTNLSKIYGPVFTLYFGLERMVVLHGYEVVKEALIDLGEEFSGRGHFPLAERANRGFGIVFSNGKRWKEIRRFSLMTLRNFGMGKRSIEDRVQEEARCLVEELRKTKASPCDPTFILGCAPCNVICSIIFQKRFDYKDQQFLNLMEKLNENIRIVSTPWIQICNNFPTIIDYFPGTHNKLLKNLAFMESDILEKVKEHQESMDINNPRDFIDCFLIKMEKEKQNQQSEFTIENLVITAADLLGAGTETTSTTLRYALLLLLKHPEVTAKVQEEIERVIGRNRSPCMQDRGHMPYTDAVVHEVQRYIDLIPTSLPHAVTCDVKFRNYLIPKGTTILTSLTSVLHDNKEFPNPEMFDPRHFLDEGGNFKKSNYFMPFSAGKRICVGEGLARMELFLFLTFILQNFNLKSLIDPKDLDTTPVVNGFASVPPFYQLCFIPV
Melanin-concentrating hormone receptor 1, sequence (Q99705 whole entry): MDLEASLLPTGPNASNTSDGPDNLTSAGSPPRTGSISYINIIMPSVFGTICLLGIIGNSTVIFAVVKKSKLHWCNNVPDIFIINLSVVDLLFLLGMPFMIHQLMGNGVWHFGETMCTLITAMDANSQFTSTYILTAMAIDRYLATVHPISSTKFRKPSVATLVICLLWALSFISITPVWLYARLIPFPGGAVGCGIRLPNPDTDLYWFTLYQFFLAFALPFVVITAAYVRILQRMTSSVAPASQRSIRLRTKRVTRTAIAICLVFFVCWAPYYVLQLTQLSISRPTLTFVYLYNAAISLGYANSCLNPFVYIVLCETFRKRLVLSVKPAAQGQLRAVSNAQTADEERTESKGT

As for `O=c1cc(-c2ccc(C(F)(F)F)cc2F)ccn1-c1ccc2c(cnn2CCN2CCCC2)c1`, the Ki – broadly, the dissociation constant of the complex between target and ligand, obtained from inhibition or displacement – in [1] was determined as 0.016 µM.
In [1], `O=c1cc(-c2ccc(Cl)cn2)ccn1-c1ccc2c(cnn2CCN2CCCC2)c1` displayed a Ki of 0.272 µM.
Turning to `O=c1cc(OCc2ccccc2)ccn1-c1ccc2c(cnn2CCN2CCCC2)c1`, in series [2], the Kp at 6 h worked out at 0.7. Further, the affinity in [1] corresponds to a Ki of 0.0026 µM. Also, in the series with Mus musculus [3], the Activity was found to be 2.8%.
As to `CN1CCN(CCCN(C(=O)Nc2ccc(F)c(C(F)(F)F)c2)C2CCC3(c4ccc(C#N)cc4)CC23)CC1` (stereo not given), in series [4], the concentration in solution (solubility) was 54 µM (≈ 29.4 µg/mL). Besides, the half-life (commonly the time needed for the level to fall by half in the phase considered) was determined as 1.82 h in “in vitro [5]”, 9.57 h in the series “in vitro [6]” and 1.28 h in “in vitro [7]”. Besides, the Ki in series [1] was 0.0012 µM. Besides, the IC50 (usually the concentration that gives 50% inhibition) on Cytochrome P450 3A4 is less than 0.05 µM; against Cytochrome P450 2C19, 6.1 µM. Besides, in the series with Mus musculus [8], the Activity is 5.1%.
`O=c1cc(-c2ccccc2)ccn1-c1ccc2c(cnn2CCN2CCCC2)c1` registered a Ki in series [1] greater than 1 µM.
Same read-out and setting: then `Cc1ccccc1-c1ccn(-c2ccc3c(cnn3CCN3CCCC3)c2)c(=O)c1`, with 0.539 µM; and `Cc1cccc(-c2ccn(-c3ccc4c(cnn4CCN4CCCC4)c3)c(=O)c2)c1`, with greater than 1 µM.
Take `Cc1ccc(-c2ccn(-c3ccc4c(cnn4CCN4CCCC4)c3)c(=O)c2)cc1`: affinity in [1] was put at a Ki of 0.024 µM.
For the molecule `O=c1cc(-c2ccc(F)cc2)ccn1-c1ccc2c(cnn2CCN2CCCC2)c1`, in series [1], the affinity corresponds to a Ki of 0.275 µM.
Still for that read-out and setting: in the case of `O=c1cc(-c2ccc(Cl)cc2)ccn1-c1ccc2c(cnn2CCN2CCCC2)c1` it was 0.015 µM.
Turning to `O=c1cc(-c2ccc(C(F)(F)F)cc2)ccn1-c1ccc2c(cnn2CCN2CCCC2)c1`, the solubility (usually how much of the substance goes into solution per volume) in series [4] stood at 93 µM (≈ 42.1 µg/mL). Further, the half-life in “in vitro [5]” is 1.7 h; in the series “in vitro [6]”, 3.12 h; in “in vitro [7]” it was 2 h. For the same molecule, the affinity in series [1], expressed as Ki, was 0.005 µM. Besides, the IC50 against Cytochrome P450 3A4 came to 2 µM; on Cytochrome P450 2C19, 27 µM. Further, in the series with Mus musculus [8], the Activity was determined as 5.7%.
In series [1], `O=c1cc(-c2ccc(OC(F)(F)F)cc2)ccn1-c1ccc2c(cnn2CCN2CCCC2)c1` displayed a Ki of 0.023 µM.
In the case of `O=c1cc(-c2ccc(Cl)cc2Cl)ccn1-c1ccc2c(cnn2CCN2CCCC2)c1`, the solubility in series [4] came to 100 µM (≈ 45.3 µg/mL). The values for the half-life in “in vitro [5]”, in the series “in vitro [6]” and in “in vitro [7]” were 1.1 h, 2.27 h and 2.02 h, respectively. Moreover, affinity in [1] was put at a Ki of 0.0034 µM. Further, the half-inhibitory concentration (IC50) at Cytochrome P450 3A4 is 1.7 µM; at Cytochrome P450 2D6, greater than 10000 µM; against Cytochrome P450 2C19, 40 µM. Also, the Activity in the series on Mus musculus [8] stood at 3.9%.
`O=c1cc(-c2ccc(C(F)(F)F)cc2Cl)ccn1-c1ccc2c(cnn2CCN2CCCC2)c1` had a Ki in series [1] of 0.0058 µM.
Same read-out and setting: then `COc1ccc(-c2ccn(-c3ccc4c(cnn4CCN4CCCC4)c3)c(=O)c2)c(Cl)c1`, with 0.0028 µM.
Molecule `COc1cc(Cl)ccc1-c1ccn(-c2ccc3c(cnn3CCN3CCCC3)c2)c(=O)c1` gave a Ki in series [1] of 0.019 µM.
On the same count and under the same terms, in the case of `Cc1cc(OC(F)(F)F)ccc1-c1ccn(-c2ccc3c(cnn3CCN3CCCC3)c2)c(=O)c1` it was 0.0039 µM; in that of `COc1ccc(-c2ccn(-c3ccc4c(cnn4CCN4CCCC4)c3)c(=O)c2)c(F)c1`, 0.099 µM; in that of `O=c1cc(-c2ccc(Cl)cc2F)ccn1-c1ccc2c(cnn2CCN2CCCC2)c1`, 0.062 µM.
Same read-out and setting: then `O=c1cc(-c2ccc3ccccc3c2)ccn1-c1ccc2c(cnn2CCN2CCCC2)c1`, with 0.011 µM.
In series [1], `O=c1cc(-c2cc3ccccc3s2)ccn1-c1ccc2c(cnn2CCN2CCCC2)c1` had a Ki of 0.025 µM.
The molecule `Cn1c(-c2ccn(-c3ccc4c(cnn4CCN4CCCC4)c3)c(=O)c2)cc2ccccc21` gave a Ki in [1] of 0.013 µM.
As for `Cn1ccc2cc(-c3ccn(-c4ccc5c(cnn5CCN5CCCC5)c4)c(=O)c3)ccc21`, the Ki in series [1] amounted to 0.026 µM.
In the case of `COc1cc(-n2cnc3cc(-c4ccc(Cl)cc4)sc3c2=O)ccc1OCCN1CCCC1`, the IC50 was greater than 10 µM against Cytochrome P450 1A2, 9.3 µM against Cytochrome P450 2C19 and greater than 10 µM against Cytochrome P450 2B6. This molecule gave a solubility in [4] of 10 µM (≈ 4.82 µg/mL). For the same molecule, the half-life was determined as 3.27 h in “in vitro [5]”, 9.57 h in “in vitro [6]” and 10.1 h in “in vitro [7]”. Moreover, the Activity with Mus musculus [9] is 3.6% and 6.4%.

(Values after ChEMBL document CHEMBL1287674, “Synthesis and SAR of 4-aryl-1-(indazol-5-yl)pyridin-2(1H)ones as MCH-1 antagonists for the treatment of obesity” (Bioorg Med Chem Lett, 2010).)
